# Experimental data from US4520022A, “Substituted vinyl cephalosporins” (priority 1983, dated 1985).
# Like-named read-outs stand apart in the source and are kept apart here.
# Columns and labels:
# [1] = system: Gp Ib: S. aureus 193, BX-1633-2 A9606, A15092, Russell, A9602; settings: Staphylococcus aureus
# [2] = system: Gp Ia: S. aureus Smith A9537, A9497, Terajima, A9534, A9601; settings: Staphylococcus aureus
# H. influenza A9729 = assay: Protective dose PD50, mice infected with lethal inoculum, oral treatment, H. influenza A9729; type: in vivo; settings: Mus musculus, 120 h
# Excerpt: The structure activity correlations drawn from the foregoing in vitro studies are born out by the results of in vivo studies in mice. Table 4 is a tabulation of the protective doses for mice infected with a lethal inoculum of a bacteria. Two different bacteria were employed in the studies, one a Gram+ organism and the other a Gram- organism. The protective dose (PD50) is that dose which when administered to a group of infected mice results in 50% survival after five days. Normally untreated infected mice die within three days following injection of the lethal inoculum.
# Protective Dose PD50 for Mice Infected with Lethal Inoculum
# H. influenzae = assay: In vitro activity against Haemophilis (MIC), H. influenzae; type: cell-based; settings: Haemophilus influenzae, Compound 9 lot 2
# S. pyogenes A20201 = assay: Protective dose PD50, mice infected with lethal inoculum, oral treatment, S. pyogenes A20201; type: in vivo; settings: Streptococcus pyogenes, 120 h
# N. meningitidis = assay: In vitro activity against Neisseria (MIC), N. meningitidis; type: cell-based
# N. gonorrheae = assay: In vitro activity against Neisseria (MIC), N. gonorrheae; type: cell-based
# [3] = mouse, in vivo
# S. aureus BX-1633 = assay: Protective dose PD50, mice infected with lethal inoculum, oral treatment, S. aureus BX-1633; type: in vivo; settings: Staphylococcus aureus, BX1633, 120 h
# S. pyogenes = assay: In vitro activity against Streptococci (MIC), S. pyogenes; type: cell-based; settings: Streptococcus pyogenes, Compound 9 lot 2
# S. pneumoniae = assay: In vitro activity against Streptococci (MIC), S. pneumoniae; type: cell-based; settings: Streptococcus pneumoniae, Compound 9 lot 2
# in vivo = settings: mouse; for half-life: T1/2
# P. mirabilis A9554 = assay: Protective dose PD50, mice infected with lethal inoculum, oral treatment, P. mirabilis A9554; type: in vivo
# [4] = system: Gp Ia, Gp Ib, Gn Ia organisms of Table 2; assay: Test medium comparison, agar dilution MIC, Mueller-Hinton agar versus nutrient agar
# S. aureus Smith = assay: Protective dose, mice infected with lethal inoculum, oral treatment, S. aureus Smith; type: in vivo; settings: Staphylococcus aureus, po, 120 h, oral; separate run of Compound 42 and BMY28100; cephalexin/cefadroxil controls not available; read-out: Protective dose (PD50), S. aureus Smith
# bacteria = assay: Antibacterial activity, general statements; settings: in words
compound,measurement,setting,value
CC1=C(C(=O)O)N2C(=O)[C@@H](NC(=O)[C@H](N)c3ccc(O)cc3)[C@H]2SC1 [Cefadroxil],MIC,"[1]; read-out: Minimum Inhibitory Concentration Gp Ib, Mueller-Hinton agar, run 1, average of five organisms",3.6 µg/mL
same,MIC,"[1]; read-out: Minimum Inhibitory Concentration Gp Ib, Mueller-Hinton agar, run 2, average of five organisms",4.1 µg/mL
same,MIC,"[2]; read-out: Minimum Inhibitory Concentration Gp Ia, Mueller-Hinton agar, run 1, average of five organisms",1.2 µg/mL
same,MIC,"[2]; read-out: Minimum Inhibitory Concentration Gp Ia, Mueller-Hinton agar, run 2, average of five organisms",1.1 µg/mL
same,ED50,H. influenza A9729,25 mg/kg
same,MIC,"H. influenzae; H. influenzae A9729, read-out: MIC",6.3 µg/mL
same,MIC,"H. influenzae; H. influenzae A9833, read-out: MIC",6.3 µg/mL
same,MIC,"H. influenzae; H. influenzae A20177, read-out: MIC",6.3 µg/mL
same,MIC,"H. influenzae; H. influenzae A20193, read-out: MIC",6.3 µg/mL
same,MIC,"H. influenzae; H. influenzae A21523, read-out: MIC",6.3 µg/mL
same,MIC,"H. influenzae; H. influenzae A22157, read-out: MIC",6.3 µg/mL
same,MIC,"H. influenzae; H. influenzae A22481, read-out: MIC",6.3 µg/mL
same,MIC,"H. influenzae; H. influenzae A22482, read-out: MIC",6.3 µg/mL
same,MIC,"H. influenzae; H. influenzae A22483, read-out: MIC",6.3 µg/mL
same,MIC,"H. influenzae; H. influenzae A22491, read-out: MIC",6.3 µg/mL
same,MIC,"H. influenzae; H. influenzae, seven strains above, read-out: MIC, Geometric Mean",6.3 µg/mL
same,ED50,S. pyogenes A20201,0.25 mg/kg
same,MIC,"N. meningitidis; N. meningitidis A21487, Compound 9 lot 2",6.3 µg/mL
same,MIC,"N. meningitidis; N. meningitidis A21496, Compound 9 lot 2",6.3 µg/mL
same,MIC,"N. meningitidis; N. meningitidis A21497, Compound 9 lot 2",6.3 µg/mL
same,MIC,"N. meningitidis; Neisseria meningitidis, read-out: MIC",6.3 µg/mL
same,MIC,"N. meningitidis; Neisseria meningitidis, read-out: MIC, Geometric Mean",6.3 µg/mL
same,MIC,"N. gonorrheae; N. gonorrheae A20142, Compound 9 lot 2",6.3 µg/mL
same,MIC,"N. gonorrheae; N. gonorrheae A20143, Compound 9 lot 2",6.3 µg/mL
same,MIC,"N. gonorrheae; N. gonorrheae A20154, Compound 9 lot 2",6.3 µg/mL
same,MIC,"N. gonorrheae; N. gonorrheae A20155, Compound 9 lot 2",6.3 µg/mL
same,MIC,N. gonorrheae; read-out: MIC,6.3 µg/mL
same,MIC,"N. gonorrheae; read-out: MIC, Geometric Mean",6.3 µg/mL
same,T1/2,"[3]; im, 20 mg/kg",0.37 h
same,T1/2,"[3]; po, 20 mg/kg",1.6 h
same,T1/2,"[3]; po, 100 mg/kg",1.5 h
same,ED50,S. aureus BX-1633,7.2 mg/kg
same,MIC,"S. pyogenes; S. pyogenes A9604, read-out: MIC",0.8 µg/mL
same,MIC,"S. pyogenes; S. pyogenes A15040, read-out: MIC",0.8 µg/mL
same,MIC,"S. pyogenes; S. pyogenes A20065, read-out: MIC",0.8 µg/mL
same,MIC,"S. pyogenes; S. pyogenes A20201, read-out: MIC",0.4 µg/mL
same,MIC,"S. pyogenes; S. pyogenes Dick, read-out: MIC",0.8 µg/mL
same,MIC,"S. pyogenes; S. pyogenes S-23, Dick, A9604, A20065, A15040, read-out: MIC, Geometric Mean",0.8 µg/mL
same,MIC,"S. pyogenes; S. pyogenes S-23, read-out: MIC",0.8 µg/mL
same,MIC,"S. pneumoniae; S. pneumoniae A9585, read-out: MIC",1.6 µg/mL
same,MIC,"S. pneumoniae; S. pneumoniae A15069, read-out: MIC",1.6 µg/mL
same,MIC,"S. pneumoniae; S. pneumoniae A20759, read-out: MIC",3.1 µg/mL
same,MIC,"S. pneumoniae; S. pneumoniae Type I, read-out: MIC",1.6 µg/mL
same,MIC,"S. pneumoniae; S. pneumoniae Type II, I, III, A9585, A15069, read-out: MIC, Geometric Mean",1.6 µg/mL
same,MIC,"S. pneumoniae; S. pneumoniae Type II, read-out: MIC",1.6 µg/mL
same,MIC,"S. pneumoniae; S. pneumoniae Type III, read-out: MIC",1.6 µg/mL
same,AUC,"in vivo; im, 20 mg/kg, AUC*",14000 ng·h/mL
same,Cmax,"in vivo; im, 20 mg/kg",21000 ng/mL
same,half-life,"in vivo; im, 20 mg/kg",0.33 h
same,AUC,"in vivo; po, 20 mg/kg, AUC*",18000 ng·h/mL
same,Cmax,"in vivo; po, 20 mg/kg",12000 ng/mL
same,half-life,"in vivo; po, 20 mg/kg",1.2 h
same,AUC,"in vivo; po, 100 mg/kg, AUC",103000 ng·h/mL
same,Cmax,"in vivo; po, 100 mg/kg",56000 ng/mL
same,half-life,"in vivo; po, 100 mg/kg",2.3 h
same,Protective Dose PD50,P. mirabilis A9554,14
"C/C=C\C1=C(C(=O)O)N2C(=O)[C@@H](NC(=O)[C@H](N)c3ccc(O)c(OC)c3)[C@H]2SC1 [Compound 42, 7β-[D(-)-2-Amino-2-(4-hydroxy-3-methoxyphenyl)acetamido]-3-[(Z)-1-propen-1-yl]-3-cephem-4-carboxylic Acid]",MIC,"[1]; read-out: Minimum Inhibitory Concentration Gp Ib, Mueller-Hinton agar, not part of run 1, tested separately, average of five organisms",1.2 µg/mL
same,MIC,"[1]; read-out: Minimum inhibitory Concentration Gp Ib, Test Medium Comparison, A: Mueller-Hinton agar, average values",1.2 µg/mL
same,MIC,"[1]; read-out: Minimum inhibitory Concentration Gp Ib, Test Medium Comparison, B: Nutrient agar, average values",0.4 µg/mL
same,difference in MIC between the two media,[4],less than three fold
same,ED50,S. aureus Smith,0.09 mg/kg
same,MIC,"[2]; read-out: Minimum Inhibitory Concentration Gp Ia, Mueller-Hinton agar, not part of run 1, tested separately, average of five organisms",0.35 µg/mL
same,MIC,"[2]; read-out: Minimum inhibitory Concentration Gp Ia, Test Medium Comparison, A: Mueller-Hinton agar, average values",0.35 µg/mL
same,MIC,"[2]; read-out: Minimum inhibitory Concentration Gp Ia, Test Medium Comparison, B: Nutrient agar, average values",0.23 µg/mL
same,antibacterial activity,bacteria,high in vitro and in vivo activity
